Results: patent US10272135B2, “Apolipoprotein O and fragments thereof for inducing apoptosis in a cancerous cell” (INSERM (INSTITUT NATIONAL DE LA SANTÉ ET DE LA RECHERCHE …, priority 2014, dated 2019)

Tests used:
Assay type in all cases: cell-based
[1] = system: H9c2 cardiac myoblasts; test: Lipid profiling (FAME, diglycerides, triglycerides, BODIPY-palmitate) in cardiac myoblasts; conditions: ApoO cells treated with both palmitate and oleate (FIG. 11a-b)
Description: (§1) After ethical committee approval, all patients in this study gave written consent for sample collection and molecular analysis prior to inclusion. Patients were carefully selected by physicians from the Department of Cardiology, Toulouse University Hospital, prior to coronary by-pass surgery. Bioinformatics. Microarray expression data from human heart samples were downloaded from the GEO repository (GSE1145). This series consisted of 107 myocardial samples collected from patients undergoing cardiac transplantation whose failure arises from different etiologies (e.g. idiopathic dilated cardiomyopathy, ischemic cardiomyopathy, valvular cardiomyopathy, and hypertrophic cardiomyopathy) and from “normal” organ donors whose hearts cannot be used for transplants. Arrays were intensity normalized and hierarchical clustering (average group linkage, Pearson correlation, threshold r=0.8) was applied to identify groups of co-expressed genes. ApoO expression levels were plotted for the 107 human hearts tested and used to define relevant molecular pathways using both Toppgene and Ingenuity Pathway Analysis (Ingenuity systems, Redwood City, Calif., USA). ApoO subcellular localization was predicted using Mitopred, mitoprot and YLoc. Animals: All animal Studies followed the INSERM Institute Animal Facility guidelines and were approved by the animal care committees of the INSERM I2MC UMR 1048. All animal procedures were performed according to the guidelines of the French Ministry of Agriculture. Animals were housed at the Toulouse I2MC animal facility in a room lit 12 h per day (6 AM-6 PM) at an ambient temperature of 22+/−1° C. […] All ApoO sequences within the expression vectors were verified by DNA double strand sequencing using ABI PRISM®BigDye™ Terminator version 3.1 Ready reaction cycle sequencing kit (Life Technologies SAS, Villebon sur Yvette) and loaded on an ABI 3130XL DNA sequencing instrument (Life Technologies SAS, Villebon sur Yvette). […]

[2] = system: Caspase-3; test: Caspase-3 enzymatic activity in H9c2 cardiac myoblasts; conditions: ApoO cells treated with both palmitate and oleate (FIG. 11c)
Description: as §1

[3] = system: long-chain acyl-CoA synthetase (ACSL); test: Acyl-CoA synthetase activity in cardiac myoblasts; conditions: ApoO cells treated with 5 μM triacsin C
Description: After ethical committee approval, all patients in this study gave written consent for sample collection and molecular analysis prior to inclusion. Patients were carefully selected by physicians from the Department of Cardiology, Toulouse University Hospital, prior to coronary by-pass surgery. Bioinformatics. Microarray expression data from human heart samples were downloaded from the GEO repository (GSE1145). This series consisted of 107 myocardial samples collected from patients undergoing cardiac transplantation whose failure arises from different etiologies (e.g. idiopathic dilated cardiomyopathy, ischemic cardiomyopathy, valvular cardiomyopathy, and hypertrophic cardiomyopathy) and from “normal” organ donors whose hearts cannot be used for transplants. Arrays were intensity normalized and hierarchical clustering (average group linkage, Pearson correlation, threshold r=0.8) was applied to identify groups of co-expressed genes. […] All ApoO sequences within the expression vectors were verified by DNA double strand sequencing using ABI PRISM®BigDye™ Terminator version 3.1 Ready reaction cycle sequencing kit (Life Technologies SAS, Villebon sur Yvette) and loaded on an ABI 3130XL DNA sequencing instrument (Life Technologies SAS, Villebon sur Yvette). […]

[4] = system: H9c2 cardiac myoblasts; test: Measurement of O2 consumption (Oroboros Oxygraph-2k) in cardiac myoblasts; conditions: for oxygen consumption: cells treated with 1 μM antimycin or 1.5 μg/ml oligomycin (FIG. 4B)
Description: After ethical committee approval, all patients in this study gave written consent for sample collection and molecular analysis prior to inclusion. Patients were carefully selected by physicians from the Department of Cardiology, Toulouse University Hospital, prior to coronary by-pass surgery. Bioinformatics. Microarray expression data from human heart samples were downloaded from the GEO repository (GSE1145). This series consisted of 107 myocardial samples collected from patients undergoing cardiac transplantation whose failure arises from different etiologies (e.g. idiopathic dilated cardiomyopathy, ischemic cardiomyopathy, valvular cardiomyopathy, and hypertrophic cardiomyopathy) and from “normal” organ donors whose hearts cannot be used for transplants. Arrays were intensity normalized and hierarchical clustering (average group linkage, Pearson correlation, threshold r=0.8) was applied to identify groups of co-expressed genes. ApoO expression levels were plotted for the 107 human hearts tested and used to define relevant molecular pathways using both Toppgene and Ingenuity Pathway Analysis (Ingenuity systems, Redwood City, Calif., USA). ApoO subcellular localization was predicted using Mitopred, mitoprot and YLoc. Animals: All animal Studies followed the INSERM Institute Animal Facility guidelines and were approved by the animal care committees of the INSERM I2MC UMR 1048. All animal procedures were performed according to the guidelines of the French Ministry of Agriculture. Animals were housed at the Toulouse I2MC animal facility in a room lit 12 h per day (6 AM-6 PM) at an ambient temperature of 22+/−1° C. Construction of ApoO Expression Vectors To overexpress human ApoO (pTT-ApoO), the ApoO coding sequence was amplified using primers hApoO5BamPTT (SEQ ID NO: 2) and hApoO3BamPTT (SEQ ID NO: 3) and cloned into the BamH1 site of pTT expression vector. pSNAP-ApoO was generated by PCR amplification of pTT-ApoO using primers SnapApoEcorV-F (SEQ ID NO: 4) and SnapApoEcorV-R (SEQ ID NO: 5) and cloned into the EcoRV site of pSNAP-Tag® (Ozyme, Saint-Quentin-en-Yvelines, France). pGEX2T-ApoO was constructed by PCR amplification of pTT-ApoO using hApoOpGEX1FBam (SEQ ID NO: 6) and hApoOpGEX1RSma (SEQ ID NO: 7) and cloned into the Bam HI/Sma I site of pGEX2T (Promega, Charbonnières-les-Bains). All primers used in this work were synthesized by Eurogentec France (Angers). All restriction enzymes used were from New England Biolabs (Ozyme, Saint-Quentin-en-Yvelines). All ApoO sequences within the expression vectors were verified by DNA double strand sequencing using ABI PRISM®BigDye™ Terminator version 3.1 Ready reaction cycle sequencing kit (Life Technologies SAS, Villebon sur Yvette) and loaded on an ABI 3130XL DNA sequencing instrument (Life Technologies SAS, Villebon sur Yvette). Cell Culture and Tranfection of H9C2 Cardic Myoblasts H9c2 were obtained from the European Collection of Cell Cultures (Salisbury, England). H9c2 cells were cultured in Dulbecco's modified Eagle medium (Life Technologies SAS, Villebon sur Yvette) adjusted to contain 1.5 g/liter sodium bicarbonate and supplemented with antibiotic-antimycotic solution (Life Technologies SAS, Villebon sur Yvette) and 10% fetal bovine serum (FBS, AbCys s.a., Paris). Cells were plated on 10-cm diameter tissue culture dish and grown in a 5% CO2 incubator at 37° C. with saturating humidity with medium changes every 2 days. […]

With `CCCCCCCC/C=C\CCCCCCCC(=O)O` [oleate, reference compound] the “decrease in diglyceride/triglyceride ratio” value [1] was 12 fold and the “decrease in Caspase-3 activity” value [2] was 2 fold.

`CCC/C=C/C/C=C/C=C/C=N/NN=O` [triacsin C, reference compound] was tested, and the “ApoO-induced increase of ACSL activity” value [3] was “significantly reversed”.

For `N#CC(C#N)=NNc1cccc(Cl)c1` [CCCP, carbonyl cyanide m-chlorophenyl hydrazone], the “increase in oxygen consumption” value ([4]; ApoO cells, addition of uncoupler 2 μM CCCP (FIG. 4B)) was 2 fold.

With antimycin the oxygen consumption [4] was “almost completely inhibited”.

For `CC[C@H]1/C=C/C=C/C[C@@H](C)[C@H](O)[C@@](C)(O)C(=O)[C@@H](C)[C@H](O)[C@@H](C)C(=O)[C@@H](C)[C@H](O)[C@@H](C)/C=C/C(=O)O[C@@H]2[C@H](C)[C@H](CC1)O[C@]1(CC[C@H](C)[C@H](C[C@@H](C)O)O1)[C@H]2C` [oligomycin], the oxygen consumption [4] was “partly inhibited”.
